Columns and labels:
Assay type in all cases: cell-based
[1] = biological target: T1, human cloned CHRM4 receptor (M4_CHO cells) (Homo sapiens, UniProt P08173); assay: CHRM4 Ca++ Flux Assay (agonist mode, FDSS 7000EX); conditions: for Emax: Percent Activity, read-out: M4 FDSS PA; for EC50: geometric mean if tested more than once, read-out: M4 FDSS EC50
T1 construct: expressed in transfected cells; host or cells: CHO-K1
T1 sequence (P08173 1-479): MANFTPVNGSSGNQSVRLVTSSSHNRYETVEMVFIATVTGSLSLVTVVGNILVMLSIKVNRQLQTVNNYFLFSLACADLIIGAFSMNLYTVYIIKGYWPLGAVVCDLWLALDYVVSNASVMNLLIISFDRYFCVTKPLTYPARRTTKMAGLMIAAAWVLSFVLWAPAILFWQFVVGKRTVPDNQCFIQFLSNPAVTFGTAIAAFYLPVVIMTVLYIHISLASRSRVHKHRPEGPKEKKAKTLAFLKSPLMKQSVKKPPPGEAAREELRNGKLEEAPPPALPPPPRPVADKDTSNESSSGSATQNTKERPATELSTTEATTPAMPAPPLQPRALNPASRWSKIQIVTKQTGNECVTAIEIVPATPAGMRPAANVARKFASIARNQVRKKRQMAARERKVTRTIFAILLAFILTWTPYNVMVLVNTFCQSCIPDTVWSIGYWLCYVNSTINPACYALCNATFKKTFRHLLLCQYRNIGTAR
In short: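 M4_CHO cells loaded with a Ca++ dye for at least 1 h were held 60 min at room temperature in HEPES/probenecid buffer with 20 μM ATP. Ca++ flux after an 11-point compound dose, in triplicate and agonist mode, was recorded over 3 min. Four-parameter fits gave curves, with activity expressed relative to the Carbachol EC100.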

[2] = biological target: T2, human cloned CHRM3 receptor (M3_CHO cells) (Homo sapiens, UniProt P20309); assay: CHRM3 Ca++ Flux Assay (agonist mode, FDSS 7000EX); conditions: for Emax: Percent Activity measured to EC100 of Carbachol, read-out: M3 FDSS PA; for EC50: agonist mode, geometric mean if tested more than once, read-out: M3 FDSS EC50
T2 construct: expressed in transfected cells; host or cells: CHO-K1
In short: (§1)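 Agonist-mode calcium flux: 11-point dose responses, triplicate wells, fluorescence followed for 3 minutes. Cells are M3_CHO or M5_CHO lines (human receptors) with Ca++ indicator in probenecid-containing HEPES/HBSS buffer. Percent activity is referenced to carbachol EC100, and curves come from four-parameter nonlinear regression.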

[3] = biological target: T3, human cloned CHRM5 receptor (M5_CHO) (Homo sapiens, UniProt P08912); assay: CHRM5 Ca++ Flux Assay (agonist mode, FDSS 7000EX); conditions: for Emax: Percent Activity measured to EC100 of Carbachol, read-out: M5 FDSS PA; for EC50: agonist mode, geometric mean if tested more than once, read-out: M5 FDSS EC50
T3 construct: expressed in transfected cells; host or cells: CHO (M5_CHO)
T3 sequence (P08912 1-532): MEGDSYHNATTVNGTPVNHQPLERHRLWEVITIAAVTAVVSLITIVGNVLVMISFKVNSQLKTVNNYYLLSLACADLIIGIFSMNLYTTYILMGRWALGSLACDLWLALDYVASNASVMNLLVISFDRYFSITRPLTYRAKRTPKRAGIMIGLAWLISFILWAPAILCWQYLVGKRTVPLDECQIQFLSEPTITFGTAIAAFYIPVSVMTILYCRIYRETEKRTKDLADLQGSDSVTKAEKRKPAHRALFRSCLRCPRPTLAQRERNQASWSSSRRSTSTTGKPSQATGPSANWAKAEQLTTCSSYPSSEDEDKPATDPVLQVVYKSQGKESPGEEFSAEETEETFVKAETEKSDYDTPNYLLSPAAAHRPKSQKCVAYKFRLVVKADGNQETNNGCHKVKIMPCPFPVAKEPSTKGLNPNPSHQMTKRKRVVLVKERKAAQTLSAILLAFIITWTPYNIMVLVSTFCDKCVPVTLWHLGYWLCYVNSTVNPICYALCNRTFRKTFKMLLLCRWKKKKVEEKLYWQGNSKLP
In short: as §1

T2 sequence (P20309 whole entry): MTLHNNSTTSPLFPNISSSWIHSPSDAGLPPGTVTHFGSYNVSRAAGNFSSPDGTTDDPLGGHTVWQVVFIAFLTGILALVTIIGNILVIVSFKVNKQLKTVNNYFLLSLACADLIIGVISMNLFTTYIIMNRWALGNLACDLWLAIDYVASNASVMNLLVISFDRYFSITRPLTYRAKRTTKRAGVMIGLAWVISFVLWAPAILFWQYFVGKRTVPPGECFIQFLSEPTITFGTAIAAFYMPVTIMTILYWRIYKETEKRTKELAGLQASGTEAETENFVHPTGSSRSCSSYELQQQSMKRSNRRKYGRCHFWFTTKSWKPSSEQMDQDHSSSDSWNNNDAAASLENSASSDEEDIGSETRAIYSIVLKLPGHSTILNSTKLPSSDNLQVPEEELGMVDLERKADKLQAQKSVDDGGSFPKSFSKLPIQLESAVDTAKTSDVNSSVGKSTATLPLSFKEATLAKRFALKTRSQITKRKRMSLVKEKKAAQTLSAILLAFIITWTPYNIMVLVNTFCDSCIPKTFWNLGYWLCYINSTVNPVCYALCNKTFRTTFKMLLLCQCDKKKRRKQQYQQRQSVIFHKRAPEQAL

Compound | Emax [1] | EC50 [1] | Emax [2] | EC50 [2] | Emax [3] | EC50 [3]
Cc1coc(N2CC3(CC[C@@H](N4CCC(c5ccc(F)cc5OCC(C)(C)O)CC4)C3)C2)n1 [Example 3N, (R)-1-(5-fluoro-2-(1-(2-(4-methyloxazol-2-yl)-2-azaspiro[3.4]octan-6-yl)piperidin-4-yl)phenoxy)-2-methylpropan-2-ol] | 0% | > 25 µM | 0% | > 25 µM | 0% | > 25 µM
COc1ccccc1C1CCN([C@@H]2CCC3(C2)CN(c2cncnc2)C3)CC1 [Example 5A, (R)-6-(4-(2-methoxyphenyl)piperidin-1-yl)-2-(pyrimidin-5-yl)-2-azaspiro[3.4]octane] | 64% | 0.002 µM | 0% | > 25 µM | 0% | > 25 µM
CC(C)(O)COc1ccccc1C1CCN([C@@H]2CCC3(C2)CN(c2cncnc2)C3)CC1 [Example 5B, (R)-2-methyl-1-(2-(1-(2-(pyrimidin-5-yl)-2-azaspiro[3.4]octan-6-yl)piperidin-4-yl)phenoxy)propan-2-ol] | 53% | 0.004 µM | 0% | > 25 µM | 0% | > 25 µM
Cc1ncncc1N1CC2(CC[C@@H](N3CCC(c4ccccc4OCC(C)(C)O)CC3)C2)C1 [Example 5C, (R)-2-methyl-1-(2-(1-(2-(4-methylpyrimidin-5-yl)-2-azaspiro[3.4]octan-6-yl)piperidin-4-yl)phenoxy)propan-2-ol] | 6% | > 25 µM | 0% | > 25 µM | 0% | > 25 µM
COc1ccccc1C1CCN([C@@H]2CCC3(C2)CN(c2ccc(C)nc2)C3)CC1 [Example 5D, (R)-6-(4-(2-methoxyphenyl)piperidin-1-yl)-2-(6-methylpyridin-3-yl)-2-azaspiro[3.4]octane] | 36% | 0.156 µM | 0% | > 25 µM | 0% | > 25 µM
COc1ccccc1C1CCN([C@@H]2CCC3(C2)CN(c2cnc(C)nc2)C3)CC1 [Example 5E, (R)-6-(4-(2-methoxyphenyl)piperidin-1-yl)-2-(2-methylpyrimidin-5-yl)-2-azaspiro[3.4]octane] | 2% | > 25 µM | 0% | > 25 µM | 0% | > 25 µM
COc1ccccc1C1CCN([C@@H]2CCC3(C2)CN(c2cncc(F)c2)C3)CC1 [Example 5F, (R)-2-(5-fluoropyridin-3-yl)-6-(4-(2-methoxyphenyl)piperidin-1-yl)-2-azaspiro[3.4]octane] | 59% | 0.006 µM | 0% | > 25 µM | 17% | 14.3 µM
COc1ccccc1C1CCN([C@@H]2CCC3(C2)CN(c2cncc(C)n2)C3)CC1 [Example 5G, (R)-6-(4-(2-methoxyphenyl)piperidin-1-yl)-2-(6-methylpyrazin-2-yl)-2-azaspiro[3.4]octane] | 1% | > 25 µM | 0% | > 25 µM | 0% | > 25 µM
COc1ccccc1C1CCN([C@@H]2CCC3(C2)CN(c2nccnc2C(F)(F)F)C3)CC1 [Example 5I, (R)-6-(4-(2-methoxyphenyl)piperidin-1-yl)-2-(3-(trifluoromethyl)pyrazin-2-yl)-2-azaspiro[3.4]octane] | 16% | 0.084 µM | 0% | > 25 µM | 0% | > 25 µM
COc1ccccc1C1CCN([C@@H]2CCC3(C2)CN(c2nccnc2C)C3)CC1 [Example 5J, (R)-6-(4-(2-methoxyphenyl)piperidin-1-yl)-2-(3-methylpyrazin-2-yl)-2-azaspiro[3.4]octane] | 60% | 0.009 µM | 0% | > 25 µM | 0% | > 25 µM
COc1ccccc1C1CCN([C@@H]2CCC3(C2)CN(c2cccnc2)C3)CC1 [Example 5K, (R)-6-(4-(2-methoxyphenyl)piperidin-1-yl)-2-(pyridin-3-yl)-2-azaspiro[3.4]octane] | 64% | 0.009 µM | 0% | > 25 µM | 0% | > 25 µM

Next, values leading:

Emax [1] | EC50 [1] | Emax [2] | EC50 [2] | Emax [3] | EC50 [3] | Compound
75% | < 0.0004 µM | 0% | > 25 µM | 0% | > 25 µM | c1ccc(C2CCN([C@@H]3CCC4(C3)CN(c3nnco3)C4)CC2)c(OC[C@H]2COCCO2)c1 [Example 1C, 2-((R)-6-(4-(2-(((R)-1,4-dioxan-2-yl)methoxy)phenyl)piperidin-1-yl)-2-azaspiro[3.4]octan-2-yl)-1,3,4-oxadiazole]
1% | > 25 µM | 0% | > 25 µM | 0% | > 25 µM | Cc1coc(N2CC3(CC[C@@H](N4CCC(c5ccccc5OCC(C)(C)O)CC4)C3)C2)n1 [Example 3O, (R)-2-methyl-1-(2-(1-(2-(4-methyloxazol-2-yl)-2-azaspiro[3.4]octan-6-yl)piperidin-4-yl)phenoxy)propan-2-ol]
77% | < 0.0004 µM | 0% | > 25 µM | 6% | 0.7 µM | COc1ccccc1C1CCN([C@@H]2CCC3(C2)CN(c2ncon2)C3)CC1 [Example 4A, (R)-3-(6-(4-(2-methoxyphenyl)piperidin-1-yl)-2-azaspiro[3.4]octan-2-yl)-1,2,4-oxadiazole]
61% | 0.001 µM | 0% | > 25 µM | 0% | > 25 µM | COc1ccccc1C1CCN([C@@H]2CCC3(C2)CN(c2cnccn2)C3)CC1 [Example 5H, (R)-6-(4-(2-methoxyphenyl)piperidin-1-yl)-2-(pyrazin-2-yl)-2-azaspiro[3.4]octane]
61% | 0.029 µM | 0% | 11.7 µM | 17% | 14.4 µM | Cc1ccc(N2CC3(CC[C@@H](N4CCC(c5ccccc5O[C@@H]5CCOC5)CC4)C3)C2)cn1 [Example 5L, (R)-2-(6-methylpyridin-3-yl)-6-(4-(2-(((R)-tetrahydrofuran-3-yl)oxy)phenyl)piperidin-1-yl)-2-azaspiro[3.4]octane]
43% | 0.051 µM | 0% | > 25 µM | 0% | > 25 µM | COc1ccccc1C1CCN([C@@H]2CCC3(C2)CN(c2ncnc(C)n2)C3)CC1 [Example 5M, (R)-6-(4-(2-methoxyphenyl)piperidin-1-yl)-2-(4-methyl-1,3,5-triazin-2-yl)-2-azaspiro[3.4]octane]
50% | 0.026 µM | 9% | 11.3 µM | 8% | 22.9 µM | COc1ccccc1C1CCN([C@@H]2CCC3(C2)CN(c2ccc(Cl)nn2)C3)CC1 [Example 5N, (R)-2-(6-chloropyridazin-3-yl)-6-(4-(2-methoxyphenyl)piperidin-1-yl)-2-azaspiro[3.4]octane]
39% | 0.055 µM | 0% | > 25 µM | 0% | > 25 µM | COc1ccccc1C1CCN([C@@H]2CCC3(C2)CN(c2cccnn2)C3)CC1 [Example 5O, (R)-6-(4-(2-methoxyphenyl)piperidin-1-yl)-2-(pyridazin-3-yl)-2-azaspiro[3.4]octane]
